The target of experiment [1] is Cyclin-dependent kinase 9 (Homo sapiens) (UniProt P50750). Put plainly: Inhibition of CDK9 (unknown origin) assessed as residual activity at 100 nM by KINOMEscan analysis relative to control.
Experiment [2] concerns Phosphatidylinositol 4,5-bisphosphate 3-kinase catalytic subunit alpha isoform (Homo sapiens), P42336 [E542K]. Description: Inhibition of PIK3CA E542K mutant (unknown origin) assessed as residual activity at 100 nM by KINOMEscan analysis relative to control.
Experiment [3] deals with Epidermal growth factor receptor (Homo sapiens), P00533 [UNDEFINED MUTATION]. Description: Inhibition of EGFR L747-S752del/P753S mutant (unknown origin) assessed as residual activity at 100 nM by KINOMEscan analysis relative to control.
Experiment [4] deals with Receptor-type tyrosine-protein kinase FLT3 (Homo sapiens) (UniProt P36888). Description: Inhibition of autoinhibited FLT3 (unknown origin) assessed as residual activity at 100 nM by KINOMEscan analysis relative to control.
For experiment [5], the target named is T1, SNF-related serine/threonine-protein kinase (Homo sapiens) (UniProt Q9NRH2).
T1 sequence (whole entry): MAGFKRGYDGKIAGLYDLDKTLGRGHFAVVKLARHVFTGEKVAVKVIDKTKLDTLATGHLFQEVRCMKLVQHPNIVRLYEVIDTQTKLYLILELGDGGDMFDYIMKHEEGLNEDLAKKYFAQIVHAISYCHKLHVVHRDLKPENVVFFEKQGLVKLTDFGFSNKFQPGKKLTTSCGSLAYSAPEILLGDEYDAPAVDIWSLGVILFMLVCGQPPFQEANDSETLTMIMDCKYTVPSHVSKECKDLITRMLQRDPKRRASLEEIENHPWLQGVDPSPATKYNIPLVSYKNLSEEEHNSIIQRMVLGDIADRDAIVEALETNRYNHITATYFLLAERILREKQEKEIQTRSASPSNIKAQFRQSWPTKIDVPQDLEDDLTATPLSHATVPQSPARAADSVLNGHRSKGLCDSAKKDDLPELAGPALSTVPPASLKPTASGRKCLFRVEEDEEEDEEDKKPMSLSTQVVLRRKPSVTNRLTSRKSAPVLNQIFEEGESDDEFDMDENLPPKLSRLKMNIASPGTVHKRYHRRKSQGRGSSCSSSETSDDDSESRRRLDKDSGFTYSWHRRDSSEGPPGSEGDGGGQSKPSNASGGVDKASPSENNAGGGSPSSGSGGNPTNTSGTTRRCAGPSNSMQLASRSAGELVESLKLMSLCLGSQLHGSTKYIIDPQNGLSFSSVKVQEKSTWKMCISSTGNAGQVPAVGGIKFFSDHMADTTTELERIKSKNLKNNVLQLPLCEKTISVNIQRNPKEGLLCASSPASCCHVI
Put plainly: Inhibition of SNRK (unknown origin) assessed as residual activity at 100 nM by KINOMEscan analysis relative to control.

Experiment [6] addresses Serine/threonine-protein kinase 25 (Homo sapiens) (UniProt O00506). Put plainly: Inhibition of YSK1 (unknown origin) assessed as residual activity at 100 nM by KINOMEscan analysis relative to control.
In experiment [7] the target is Cyclin-dependent kinase-like 1 (Homo sapiens) (UniProt Q00532). Put plainly: Inhibition of CDKL1 (unknown origin) assessed as residual activity at 100 nM by KINOMEscan analysis relative to control.
Experiment [8] addresses T2, Cytoplasmic tyrosine-protein kinase BMX (Homo sapiens) (UniProt P51813).
T2 sequence (whole entry): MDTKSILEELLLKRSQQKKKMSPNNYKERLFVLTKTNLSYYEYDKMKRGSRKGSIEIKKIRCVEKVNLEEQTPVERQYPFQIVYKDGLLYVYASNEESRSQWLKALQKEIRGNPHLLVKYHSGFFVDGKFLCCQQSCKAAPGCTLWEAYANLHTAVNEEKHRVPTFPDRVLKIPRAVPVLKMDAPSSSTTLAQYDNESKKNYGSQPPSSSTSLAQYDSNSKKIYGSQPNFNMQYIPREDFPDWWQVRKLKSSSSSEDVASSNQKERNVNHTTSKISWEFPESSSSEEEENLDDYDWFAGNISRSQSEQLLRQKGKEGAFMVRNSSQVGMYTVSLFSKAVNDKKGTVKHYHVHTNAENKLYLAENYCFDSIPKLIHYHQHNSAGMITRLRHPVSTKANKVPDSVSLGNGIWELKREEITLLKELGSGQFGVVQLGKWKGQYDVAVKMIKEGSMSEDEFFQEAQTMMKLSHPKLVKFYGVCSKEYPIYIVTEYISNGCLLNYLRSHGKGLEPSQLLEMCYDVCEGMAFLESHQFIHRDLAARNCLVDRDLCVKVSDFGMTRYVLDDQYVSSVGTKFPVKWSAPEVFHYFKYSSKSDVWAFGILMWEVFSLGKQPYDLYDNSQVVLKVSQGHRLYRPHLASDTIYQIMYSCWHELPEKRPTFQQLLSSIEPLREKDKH
Put plainly: Inhibition of BMX (unknown origin) assessed as residual activity at 100 nM by KINOMEscan analysis relative to control.

Experiment [9] has as its target Activated CDC42 kinase 1 (Homo sapiens) (UniProt Q07912). Description: Inhibition of TNK2 (unknown origin) assessed as residual activity at 100 nM by KINOMEscan analysis relative to control.
Experiment [10] concerns the target Mitotic checkpoint serine/threonine-protein kinase BUB1 (Homo sapiens) (UniProt O43683). Put plainly: Inhibition of BUB1 (unknown origin) assessed as residual activity at 100 nM by KINOMEscan analysis relative to control.
The target of the next experiment is SOS1-KRAS (Homo sapiens, UniProt Q07889). Put plainly: Inhibition of N-terminal GST-tagged recombinant human KRAS G12C mutant (1 to 169 residues) expressed in Escherichia coli/N-terminal His10-tagged wild-type recombinant human SOS1 catalytic domain (564 to 1049 residues) expressed in Escherichia coli protein-protein interaction preincubated for 2 mins with KRAS followed by SOS1 addition measured after 60 mins in presence of anti-6His-XL665 by HTRF analysis. A general note: Time-resolved FRET reads energy transfer from a long-lived donor to a nearby acceptor.

For orientation: pIC50 means the negative decadic logarithm of the IC50, by convention in mol/L.

The structures appear in SMILES notation. pIC50: −log10 of the molar value.

Chain of SOS1-KRAS (Q07889 whole entry, looked up, stated change not applied, the tested form may be a part): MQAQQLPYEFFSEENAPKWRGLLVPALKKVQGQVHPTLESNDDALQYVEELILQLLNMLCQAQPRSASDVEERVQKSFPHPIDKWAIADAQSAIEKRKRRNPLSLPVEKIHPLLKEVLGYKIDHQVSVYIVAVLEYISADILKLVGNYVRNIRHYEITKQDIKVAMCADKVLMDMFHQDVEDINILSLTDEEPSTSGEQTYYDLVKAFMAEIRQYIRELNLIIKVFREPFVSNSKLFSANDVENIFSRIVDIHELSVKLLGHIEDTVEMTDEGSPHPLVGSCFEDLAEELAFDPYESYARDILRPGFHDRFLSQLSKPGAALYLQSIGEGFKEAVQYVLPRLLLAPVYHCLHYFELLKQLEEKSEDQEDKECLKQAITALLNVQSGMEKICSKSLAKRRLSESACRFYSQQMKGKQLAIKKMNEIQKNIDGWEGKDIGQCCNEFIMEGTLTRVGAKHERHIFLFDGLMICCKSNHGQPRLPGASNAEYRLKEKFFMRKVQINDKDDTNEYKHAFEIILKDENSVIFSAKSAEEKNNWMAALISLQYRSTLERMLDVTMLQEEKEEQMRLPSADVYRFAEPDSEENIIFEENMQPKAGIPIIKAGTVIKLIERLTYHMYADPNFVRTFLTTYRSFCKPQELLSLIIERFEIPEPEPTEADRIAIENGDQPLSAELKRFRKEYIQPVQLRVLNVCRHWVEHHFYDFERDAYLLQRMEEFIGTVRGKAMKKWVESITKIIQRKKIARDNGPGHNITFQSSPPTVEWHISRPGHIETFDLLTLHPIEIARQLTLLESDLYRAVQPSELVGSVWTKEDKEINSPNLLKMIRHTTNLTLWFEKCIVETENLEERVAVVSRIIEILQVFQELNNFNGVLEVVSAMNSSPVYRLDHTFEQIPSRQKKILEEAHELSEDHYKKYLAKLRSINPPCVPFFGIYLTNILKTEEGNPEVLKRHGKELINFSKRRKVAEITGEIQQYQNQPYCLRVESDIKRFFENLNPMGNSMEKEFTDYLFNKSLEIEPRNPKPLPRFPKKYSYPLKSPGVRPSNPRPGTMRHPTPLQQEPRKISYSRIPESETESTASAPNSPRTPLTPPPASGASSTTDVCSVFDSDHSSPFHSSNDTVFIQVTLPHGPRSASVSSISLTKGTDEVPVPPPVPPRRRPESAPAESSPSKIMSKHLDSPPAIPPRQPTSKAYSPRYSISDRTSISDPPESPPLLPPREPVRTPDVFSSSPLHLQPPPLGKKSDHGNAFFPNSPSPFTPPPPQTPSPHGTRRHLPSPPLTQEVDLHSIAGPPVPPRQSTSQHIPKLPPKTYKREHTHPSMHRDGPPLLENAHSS
Chain of Phosphatidylinositol 4,5-bisphosphate 3-kinase catalytic subunit alpha isoform (Homo sapiens), P42336 [E542K] (P42336 whole entry E542K, canonical isoform): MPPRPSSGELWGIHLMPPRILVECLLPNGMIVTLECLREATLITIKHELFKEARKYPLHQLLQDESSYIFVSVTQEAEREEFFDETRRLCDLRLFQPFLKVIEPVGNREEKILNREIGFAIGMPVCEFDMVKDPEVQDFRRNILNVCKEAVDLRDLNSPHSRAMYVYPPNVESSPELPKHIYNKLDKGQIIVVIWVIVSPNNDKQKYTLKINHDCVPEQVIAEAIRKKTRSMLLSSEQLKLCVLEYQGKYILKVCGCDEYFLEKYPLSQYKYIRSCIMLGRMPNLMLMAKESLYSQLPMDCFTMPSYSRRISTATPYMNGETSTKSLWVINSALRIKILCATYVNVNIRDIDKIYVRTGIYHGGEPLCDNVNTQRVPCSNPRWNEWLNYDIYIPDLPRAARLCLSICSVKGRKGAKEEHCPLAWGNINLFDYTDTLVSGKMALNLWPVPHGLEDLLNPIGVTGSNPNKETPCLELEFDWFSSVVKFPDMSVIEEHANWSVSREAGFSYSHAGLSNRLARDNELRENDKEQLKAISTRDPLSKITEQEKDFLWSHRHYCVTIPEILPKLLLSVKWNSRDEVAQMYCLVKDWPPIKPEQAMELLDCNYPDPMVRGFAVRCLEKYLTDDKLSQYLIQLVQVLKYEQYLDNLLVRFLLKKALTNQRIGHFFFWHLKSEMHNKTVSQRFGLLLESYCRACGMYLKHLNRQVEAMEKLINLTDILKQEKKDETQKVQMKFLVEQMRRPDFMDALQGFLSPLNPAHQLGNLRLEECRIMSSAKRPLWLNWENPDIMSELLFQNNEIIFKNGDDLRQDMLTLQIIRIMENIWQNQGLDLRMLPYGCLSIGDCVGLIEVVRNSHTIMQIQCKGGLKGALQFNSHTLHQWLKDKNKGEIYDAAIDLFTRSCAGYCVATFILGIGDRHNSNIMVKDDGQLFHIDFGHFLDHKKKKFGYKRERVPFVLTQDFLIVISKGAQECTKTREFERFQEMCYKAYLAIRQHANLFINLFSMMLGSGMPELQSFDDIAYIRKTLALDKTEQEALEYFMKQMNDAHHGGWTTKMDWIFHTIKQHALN
Chain of Mitotic checkpoint serine/threonine-protein kinase BUB1 (Homo sapiens) (O43683 whole entry, looked up, the tested form may be a part): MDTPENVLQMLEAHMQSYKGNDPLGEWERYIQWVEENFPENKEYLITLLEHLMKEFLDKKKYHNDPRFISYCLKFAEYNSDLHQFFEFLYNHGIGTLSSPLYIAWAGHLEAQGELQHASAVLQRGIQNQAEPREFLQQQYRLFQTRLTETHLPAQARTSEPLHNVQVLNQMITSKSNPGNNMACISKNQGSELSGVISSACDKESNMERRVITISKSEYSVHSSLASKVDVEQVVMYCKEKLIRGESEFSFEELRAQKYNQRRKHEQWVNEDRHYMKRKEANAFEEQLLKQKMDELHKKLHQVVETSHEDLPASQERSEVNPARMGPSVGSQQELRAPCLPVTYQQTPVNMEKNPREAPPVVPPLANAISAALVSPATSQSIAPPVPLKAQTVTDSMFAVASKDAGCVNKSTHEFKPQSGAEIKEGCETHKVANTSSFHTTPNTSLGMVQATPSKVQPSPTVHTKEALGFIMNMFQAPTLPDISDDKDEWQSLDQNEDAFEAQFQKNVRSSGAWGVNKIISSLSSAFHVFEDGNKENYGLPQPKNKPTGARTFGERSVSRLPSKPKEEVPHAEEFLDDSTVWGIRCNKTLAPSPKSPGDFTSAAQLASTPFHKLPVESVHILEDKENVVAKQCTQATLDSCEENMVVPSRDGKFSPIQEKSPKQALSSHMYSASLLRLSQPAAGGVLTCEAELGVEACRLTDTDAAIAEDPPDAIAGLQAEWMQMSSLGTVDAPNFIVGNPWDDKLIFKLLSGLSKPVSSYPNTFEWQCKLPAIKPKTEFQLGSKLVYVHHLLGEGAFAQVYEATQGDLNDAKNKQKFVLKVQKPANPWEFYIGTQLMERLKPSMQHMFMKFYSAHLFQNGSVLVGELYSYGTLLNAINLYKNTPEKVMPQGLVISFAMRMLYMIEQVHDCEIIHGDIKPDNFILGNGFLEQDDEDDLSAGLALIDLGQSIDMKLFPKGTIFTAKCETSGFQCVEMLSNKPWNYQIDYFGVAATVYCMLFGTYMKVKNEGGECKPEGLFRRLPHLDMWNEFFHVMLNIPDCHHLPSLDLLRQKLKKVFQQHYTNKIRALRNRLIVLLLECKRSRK
Chain of Epidermal growth factor receptor (Homo sapiens), P00533 [UNDEFINED MUTATION] (P00533 whole entry, looked up, stated change not applied): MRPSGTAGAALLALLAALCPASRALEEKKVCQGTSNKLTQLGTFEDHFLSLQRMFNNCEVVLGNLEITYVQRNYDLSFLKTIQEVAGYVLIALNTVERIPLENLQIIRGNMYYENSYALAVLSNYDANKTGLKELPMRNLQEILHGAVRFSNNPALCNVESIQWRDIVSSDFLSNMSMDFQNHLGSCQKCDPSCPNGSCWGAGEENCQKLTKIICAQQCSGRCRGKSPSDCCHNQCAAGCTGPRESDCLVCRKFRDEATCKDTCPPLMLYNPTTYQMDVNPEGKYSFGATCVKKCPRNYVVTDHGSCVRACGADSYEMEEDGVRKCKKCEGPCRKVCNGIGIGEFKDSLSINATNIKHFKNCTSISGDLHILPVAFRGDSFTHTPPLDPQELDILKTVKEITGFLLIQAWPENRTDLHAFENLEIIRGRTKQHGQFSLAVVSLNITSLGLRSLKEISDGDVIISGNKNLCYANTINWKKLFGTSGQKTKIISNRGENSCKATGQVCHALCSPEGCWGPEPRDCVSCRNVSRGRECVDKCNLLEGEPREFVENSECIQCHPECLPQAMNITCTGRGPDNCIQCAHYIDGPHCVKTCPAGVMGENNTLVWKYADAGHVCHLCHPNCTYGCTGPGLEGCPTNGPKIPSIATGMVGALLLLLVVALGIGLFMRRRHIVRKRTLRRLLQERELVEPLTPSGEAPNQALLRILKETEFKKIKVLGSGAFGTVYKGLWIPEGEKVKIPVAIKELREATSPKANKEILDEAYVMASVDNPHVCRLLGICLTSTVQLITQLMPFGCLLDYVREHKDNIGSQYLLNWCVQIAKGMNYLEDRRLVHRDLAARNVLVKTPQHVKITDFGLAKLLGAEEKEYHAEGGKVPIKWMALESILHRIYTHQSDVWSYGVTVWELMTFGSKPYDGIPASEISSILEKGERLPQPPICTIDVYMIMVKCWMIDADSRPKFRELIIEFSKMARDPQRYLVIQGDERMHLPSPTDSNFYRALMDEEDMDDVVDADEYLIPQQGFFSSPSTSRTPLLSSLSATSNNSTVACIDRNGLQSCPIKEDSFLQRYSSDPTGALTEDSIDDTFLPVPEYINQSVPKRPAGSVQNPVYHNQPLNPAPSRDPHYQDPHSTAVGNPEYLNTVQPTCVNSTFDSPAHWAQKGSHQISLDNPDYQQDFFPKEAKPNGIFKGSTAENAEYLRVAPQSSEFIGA
Chain of Cyclin-dependent kinase-like 1 (Homo sapiens) (Q00532 whole entry): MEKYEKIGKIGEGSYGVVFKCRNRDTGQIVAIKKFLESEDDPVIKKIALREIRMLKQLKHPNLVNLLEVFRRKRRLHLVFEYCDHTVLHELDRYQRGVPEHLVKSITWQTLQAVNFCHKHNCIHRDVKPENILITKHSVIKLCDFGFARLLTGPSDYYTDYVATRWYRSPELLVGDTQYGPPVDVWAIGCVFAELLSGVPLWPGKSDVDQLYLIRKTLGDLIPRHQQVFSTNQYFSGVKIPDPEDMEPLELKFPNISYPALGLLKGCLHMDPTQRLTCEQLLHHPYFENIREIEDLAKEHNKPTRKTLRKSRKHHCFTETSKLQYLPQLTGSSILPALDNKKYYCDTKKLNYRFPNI

As for `COc1cc2ncnc(N[C@H](C)c3cccc4ccccc34)c2cc1OC`, the Activity in experiment [1] worked out at 89%; in experiment [2] it was 74%; in [3], 90%; in experiment [4] it was 88%; in experiment [5], 74%; in [6] it was 100%. For the same compound, the Activity came out at 70% in experiment [7], 79% in [8], 100% in [9] and 100% in experiment [10].
With `COc1cc2nc(C)nc(NC(C)c3ccc(-c4cnc5n4CCC5)s3)c2cc1OC` (stereo unspecified), at SOS1-KRAS, the pIC50 is 6.40.

Values taken from ChEMBL document CHEMBL5678818, “Discovery of potent SOS1 inhibitors that block RAS activation via disruption of the RAS-SOS1 interaction” (Proc Natl Acad Sci U S A, 2019).
